Data as given in patent US20210029993A1, “SPATIAL INHIBITORS, DETERRENTS AND REPELLENTS FOR MOSQUITOES AND MIDGES” (BEDOUKIAN RESEARCH, INC., priority 2005, published 2021).

How the values were obtained:
[1] = tested on: mosquitoes and biting midges; settings: related art; cited from earlier work
[2] = tested on: female mosquitoes (Aedes aegypti); experiment: Mosquitoes feeding test (Plexiglas module, treated membrane over dyed sucrose/ATP solution); type: in vivo; settings: feeding relative to control, FIGS. 1 and 3
Experimental: (§1) The test was conducted at 0900-2100 hours in a walk-in incubator (26° C., 63-80% RH) illuminated by fluorescent lights. Mosquitoes were tested in a two-piece Plexiglas module designed to assess their response to feeding deterrents. The bottom piece of the module was 40×7×4-cm hollow platform supporting six circular wells (diameter=3.8 cm, depth=6 mm). Water (40° C.) flowed through the central cavity of the platform at a rate of 215 ml/min. The top piece of the module consisted of six 4.5×4.0×5.0 cm chambers, the floors of which were fitted with a sliding door positioned over a circular opening 3.5 cm in diameter. Mosquitoes were introduced through an aperture 1 cm in diameter on the front wall of the chambers. For each test, five female mosquitoes (Aedes aegypti) were aspirated into each of five chambers of the top module piece and the apertures were plugged with corks wrapped in plastic film. The wells on the bottom piece of the module were filled with 7 ml of 10% sucrose solution containing ATP (2.9 mg/ml). To each well, 75 μl of green dye (McCormick Food, Hunt Valley, Md.) were added so that those mosquitoes imbibing the sugar solution could be identified when crushed at the end of the tests. Each membrane received 50 ul of acetone or experimental compound solution, applied to 9.6 cm^2 circular area on 0.1 mm-thick membranes made of nylon mesh in a silicone matrix. The membranes were then placed over each well in contact with the sugar solution.
(§2) The circular openings on the floor of each chamber of the top piece of the module were aligned with each membrane-covered well of the bottom piece. The sliding floors of the chambers were then opened allowing mosquitoes access to the membranes. The number of mosquitoes landing on the membranes, and those flying within the apparatus, were recorded each minute for five minutes. After five minutes, any mosquitoes remaining on the membranes were removed with a metal wire, and the door of the floor of each chamber was closed. The top piece of the module was then placed into a freezer for 20 minutes. In the test designed to assess feeding, mosquitoes were removed from the frozen module, crushed on white paper towels, and examined for the presence of green dye to indicate that feeding had occurred. The proportions of mosquitoes feeding per trial were analyzed using a standard generalized linear model with a logit link. Landing and flying scores are repeated measures; five reading were obtained for groups of five mosquitoes. Thus, to maintain independence among the data, the five readings were summed, and then the sums divided by 25 (the maximum score in each category) to create proportions of mosquitoes landing and flying. The proportions were then transferred using the standard variance stabilizing transformation for proportions (sin^−1 √y, where y is the proportion), and analyzed using ANOVA (Analysis of Variables)
In Table 1, weight percent (wt %) refers to the weight of the deterring/repelling/inhibiting compound, or combination of compounds, in the composition used in the tests. […] The weight ratio of the compounds in the combination of compounds is given in parentheses in the “Compound(s)” column of Table 1.

mosquitoes [3] = experiment: Spatial inhibition of mosquitoes, outdoor Mosquito Magnet Liberty Plus trap catch; type: in vivo; settings: two grams of test compound on absorbent material in CO2 and r-octenol stream of trap; 2-5 days; FIG. 5
Experimental: Two grams of test compound was absorbed onto pieces of absorbent material. These pieces of absorbent material (fragrance release material from Rhopore Inc.) containing absorbed test compound were then placed in a stream of CO2 and r-octenol being released from an American Biophysics Mosquito Magnet Liberty Plus mosquito trap designed to attract mosquitoes. The test were rotated over a period of 2-5 days in such a manner that both control (trap without test compound) and test compound were tested an equal number of times in each trap employed. The number of mosquitoes caught in the traps with test compounds was compared to the number of mosquitoes caught in the trap with no test compound material present. […] Thus, a lowered percentage is indicative of the increasing ability of the test compounds to inhibit the ability of the mosquitoes sense the target. […] In Table 3, weight percent (wt %) refers to the weight of the deterring/repelling/inhibiting compound, or combination of compounds, in the composition used in the tests. In the “Percent Caught Relative to Control” column in Table 3, a lower percentage is indicative of the increasing ability of the test compounds to inhibit the ability of the mosquitoes sense the target. The weight ratio of the compounds in the combination of compounds is given in parentheses in the “Compound(s)” column of Table 3.

mosquitoes [4] = experiment: Limonene tested against mosquitoes (background); type: in vivo; settings: background statement
[5] = tested on: female mosquitoes (Aedes aegypti); experiment: Mosquitoes flying test (Plexiglas module, mosquitoes flying within the apparatus); type: in vivo; settings: flying relative to control, FIGS. 2 and 4
Experimental: as §1, §2
In Table 2, weight percent (wt %) refers to the weight of the deterring/repelling/inhibiting compound, or combination of compounds, in the composition used in the tests. […] The weight ratio of the compounds in the combination of compounds is given in parentheses in the “Compound(s)” column of Table 2.

C=CC(C)(O)CCC=C(C)C (stereo not drawn) [linalool]
spatial inhibitor efficacy, in words [1]: act as spatial inhibitors

cis and trans carveol
contact mosquito repellent activity (feeding tests, FIGS. 1 and 3), in words [2]: especially effective as contact mosquito repellents
percent mosquitoes caught relative to the control (relative catch) (mosquitoes [3]): about 43%

C=C(C)C1CC=C(C)CC1 (stereo not drawn) [limonene]
repellent or spatial inhibitor efficacy against mosquitoes, in words (mosquitoes [4]): not found to be either an effective repellent or spatial inhibitor

(+)/(−) limonene oxide
spatial inhibitor activity for mosquitoes (flying tests, FIGS. 2 and 4), in words [5]: particularly effective as spatial inhibitors for mosquitoes
contact mosquito repellent activity (feeding tests, FIGS. 1 and 3), in words [2]: especially effective as contact mosquito repellents
